These results are taken from US8030478B2, “Method for nucleic acid replication and novel artificial base pairs” (priority 2005, dated 2011).

Like-named read-outs stand apart in the source and are kept apart here.

Assay [1] deals with T1, Klenow fragment lacking exonuclease activity (KF exo−) (Escherichia coli, UniProt P00582, D355A/E357A).
T1 construct: enzyme solution of the Klenow fragment lacking exonuclease activity (KF exo^−, Amersham USB); purchased Amersham USB
It counts as biochemical, E. coli. The settings on record: for Efficiency (Vmax/KM) / Km / Vmax: 37° C.; for inserted products (KM, Vmax n.d.): 20 minutes, 1500 μM nucleoside 5′-triphosphate, 50 nM enzyme. As to the method:
The single nucleotide insertion experiment was performed as described in documents (Non-patent Documents 30-32). A primer (20-mer) labeled with 6-carboxylfluorescein at the 5′-end was annealed with template DNA (35-mer) by heating at 95° C. and slow cooling to 4° C. in 100 mM Tris-HCl (pH 7.5) buffer containing 20 mM MgCl2, 2 mM DTT and 0.1 mg/ml bovine serum albumin. The primer-template duplex solution (10 μM, 5 μl) was mixed with 2 μl enzyme solution of the Klenow fragment lacking exonuclease activity (KF exo^−, Amersham USB). After the mixture was incubated for 2 minutes, each dNTP solution (3 μl) was added to this solution to start the reaction at 37° C. The amount of the enzyme used (5-50 nM), the reaction time (1-35 minutes) and the gradient concentration of each dNTP (0.3-1500 μM) were adjusted to ensure conditions giving 25% or less products. The reaction was stopped with 10 μl stop solution (95% formamide and 20 mM EDTA), and the mixture was immediately heated at 75° C. for 3 minutes. The diluted products were analyzed in an automated ABI377 DNA sequencer equipped with GeneScan software (version 3.0) (Non-patent Document 32). The relative velocity (v0) was calculated by dividing the extent of reaction by the reaction time, and then normalized to the enzyme concentration (20 nM) for the various enzyme concentrations used. Kinetic parameters (KM and Vmax) were obtained from Hanes-Woolf plots of [dNTP]/v0 against [dNTP].
Each parameter was averaged from 3 to 8 data sets.

In assay [2] the target is T7 RNA polymerase (Escherichia phage T7, UniProt P00573). Particulars: for transcripts biotinylated (incorporation rate): DNA6 template obtained by ligation; for misincorporation opposite natural bases, yield of biotinylated transcripts / misincorporation per base position in the 152-mer transcripts: DNAcont2 template.
Chain of T7 RNA polymerase (P00573 whole entry): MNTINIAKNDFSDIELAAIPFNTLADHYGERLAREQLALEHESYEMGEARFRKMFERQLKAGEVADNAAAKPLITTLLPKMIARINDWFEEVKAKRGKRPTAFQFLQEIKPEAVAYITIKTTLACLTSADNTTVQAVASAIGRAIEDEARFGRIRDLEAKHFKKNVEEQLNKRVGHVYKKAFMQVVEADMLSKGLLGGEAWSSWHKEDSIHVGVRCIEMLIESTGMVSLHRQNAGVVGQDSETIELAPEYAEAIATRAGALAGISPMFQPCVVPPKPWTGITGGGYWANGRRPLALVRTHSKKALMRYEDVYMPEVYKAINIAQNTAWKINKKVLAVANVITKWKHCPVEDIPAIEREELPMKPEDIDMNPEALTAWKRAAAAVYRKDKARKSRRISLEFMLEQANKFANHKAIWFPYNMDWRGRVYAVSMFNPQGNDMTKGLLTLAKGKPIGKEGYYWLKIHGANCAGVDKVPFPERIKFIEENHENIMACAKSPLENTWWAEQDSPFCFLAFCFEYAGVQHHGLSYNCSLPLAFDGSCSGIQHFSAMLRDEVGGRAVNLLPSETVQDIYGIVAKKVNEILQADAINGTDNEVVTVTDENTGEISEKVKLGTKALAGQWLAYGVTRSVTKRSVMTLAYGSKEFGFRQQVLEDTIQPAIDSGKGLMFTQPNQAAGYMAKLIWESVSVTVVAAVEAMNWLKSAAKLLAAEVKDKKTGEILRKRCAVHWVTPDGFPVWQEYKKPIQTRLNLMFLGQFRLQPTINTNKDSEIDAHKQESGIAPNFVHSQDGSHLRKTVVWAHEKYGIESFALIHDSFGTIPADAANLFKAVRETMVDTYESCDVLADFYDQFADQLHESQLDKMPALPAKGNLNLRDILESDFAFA
Description: 152-mer RNAs transcribed with Bio-PaTP from DNA6 template obtained by ligation and DNAcont2 template obtained by PCR amplification (20 cycles), as well as 152-mer RNAs transcribed with biotinylated UTP (Bio-UTP) from DNAcont5 and DNAcont6 templates obtained by ligation were mixed with streptavidin. Biotinylated RNA-streptavidin complexes were separated from free RNAs on a 7% polyacrylamide-7 M urea gel, and the percentages (yields) of the complexes were determined from their band intensity.
Transcription (20 μl) was performed for 6 hours at 37° C. using 3 μCi [γ-^32P]GTP, 2 mM each natural NTP, 0-4 mM Bio-PaTP (biotinylated Pa substrate: chemically synthesized as shown in Example IV), and 30 nM template (DNA6 and DNAcont2 (see FIG. 6), obtained by both ligation and PCR amplification).
For control reactions using DNAcont5 and DNAcont6 obtained by ligation (see FIG. 6), transcription was performed only with 2 mM ATP, GTP and CTP in the presence or absence of 2 mM Bio-UTP (biotin-16-uridine-5′-triphosphate, Roche Applied Science). The products were analyzed and purified on a 7-10% polyacrylamide-7 M urea gel.
The biotinylated RNA transcripts were detected by gel shift assay using streptavidin. A mixture (10 μl) of 2 pmol ^32P-labeled transcript and 100 pmol streptavidin (Promega) was incubated at 20° C. for 1 hour in 10 mM Tris-HCl buffer (pH 7.6) containing 50 mM NaCl and 10 mM EDTA. The biotinylated RNA-streptavidin complexes were analyzed by electrophoresis on a 7% polyacrylamide-7 M urea gel. To determine the position where Bio-Pa was introduced, each RNA (152-mer) was labeled with [γ-^32P]ATP (Perkin Elmer) after 5′-dephosphorylation with calf intestinal alkaline phosphatase (Takara). The labeled RNA was partially digested with RNase T1 at 55° C. for 12 minutes in 13.3 mM sodium citrate buffer (pH 5.0) containing 4.7 M urea, 0.7 mM EDTA and 0.17 mg/ml E. coli tRNA, or with alkali at 90° C. for 15 minutes in 32 mM sodium carbonate buffer (pH 9.1) containing 0.6 mM EDTA. The alkali-digested RNA solution (9 μl) was mixed with 11 μl of 20 mM Tris-HCl buffer (pH 7.6) containing 150 mM NaCl, and the mixture (10 μl) was then incubated with streptavidin magnetic beads (0.4 mg) (New England BioLabs) for 5 minutes at room temperature to capture the biotinylated RNA. An aliquot (5 μl) of the supernatant was analyzed together with other digested samples on a 10% polyacrylamide-7 M urea gel.

T1 sequence (P00582 324-928 D355A/E357A): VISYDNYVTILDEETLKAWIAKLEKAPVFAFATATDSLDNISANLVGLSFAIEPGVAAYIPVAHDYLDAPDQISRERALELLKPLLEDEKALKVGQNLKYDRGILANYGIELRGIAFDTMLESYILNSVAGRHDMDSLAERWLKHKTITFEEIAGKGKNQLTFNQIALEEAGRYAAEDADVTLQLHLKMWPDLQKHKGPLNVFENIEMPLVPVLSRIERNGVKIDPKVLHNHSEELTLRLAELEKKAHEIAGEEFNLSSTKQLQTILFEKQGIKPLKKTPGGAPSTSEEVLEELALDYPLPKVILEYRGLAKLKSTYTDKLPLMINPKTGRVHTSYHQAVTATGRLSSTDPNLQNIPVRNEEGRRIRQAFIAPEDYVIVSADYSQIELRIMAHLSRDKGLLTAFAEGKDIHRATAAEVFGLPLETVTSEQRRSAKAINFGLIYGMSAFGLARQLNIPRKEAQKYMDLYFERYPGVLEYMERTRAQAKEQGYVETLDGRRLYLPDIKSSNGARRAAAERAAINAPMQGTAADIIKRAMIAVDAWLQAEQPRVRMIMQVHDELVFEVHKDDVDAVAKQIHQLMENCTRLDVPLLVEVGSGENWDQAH

For dATP [reference compound], the “Efficiency (Vmax/KM)” value in assay [1] (template (N) = C, temp35N-2) was 4.6 × 10^3 % min^−1M^−1; in assay [1] (template (N) = Ds, temp35N-1) it was 2.4 × 10^3 % min^−1M^−1; in assay [1] (template (N) = Pa, temp35N-2), 4.3 × 10^4 % min^−1M^−1; in assay [1] (template (N) = Pa′, temp35N-2) it was 3.7 × 10^4 % min^−1M^−1; in assay [1] (template (N) = T, temp35N-2) it was 4.1 × 10^6 % min^−1M^−1. In addition, the Michaelis constant (Km) (usually the concentration of substrate that gives half-maximal velocity) in assay [1] (template (N) = C, temp35N-2) was found to be 500 µM; in assay [1] (template (N) = Ds, temp35N-1), 150 µM; in assay [1] (template (N) = Pa, temp35N-2) it was 490 µM; in assay [1] (template (N) = Pa′, temp35N-2), 570 µM; in assay [1] (template (N) = T, temp35N-2), 0.81 µM. For the same compound, the Vmax is recorded as 2.3 % min^−1 in assay [1] (template (N) = C, temp35N-2); 0.36 % min^−1 in assay [1] (template (N) = Ds, temp35N-1); 21 % min^−1 in assay [1] (template (N) = Pa, temp35N-2); 21 % min^−1 in assay [1] (template (N) = Pa′, temp35N-2); 3.3 % min^−1 in assay [1] (template (N) = T, temp35N-2).
Take `O=Cc1cc(C#CCNC(=O)CCCC[C@@H]2SC[C@@H]3NC(=O)N[C@@H]32)cn1[C@@H]1O[C@H](COP(=O)(O)OP(=O)(O)OP(=O)(O)O)[C@@H](O)[C@H]1O` [Bio-PaTP, 1-(β-D-ribofuranosyl)-4-[(3-biotinamido-1-propynyl)]pyrrole-2-carbaldehyde 5′-triphosphate]: in assay [2] (2 mM Bio-PaTP), the “transcripts biotinylated (incorporation rate)” value was 90%; the “misincorporation opposite natural bases, yield of biotinylated transcripts” value worked out at 9%; the “misincorporation per base position in the 152-mer transcripts” value turned out to be 0.06%. Further, in assay [2] (4 mM Bio-PaTP), the “transcripts biotinylated (incorporation rate)” value came to 96%; the “misincorporation opposite natural bases, yield of biotinylated transcripts” value turned out to be 16%; the “misincorporation per base position in the 152-mer transcripts” value worked out at 0.12%. Further, the “reduction of incorporation rate with template obtained by PCR amplification” value in assay [2] (template from PCR (20 cycles), FIG. 44d, Lanes 9 and 11) is listed as 3-4%.
As to `CC#Cc1cc(C=O)n([C@H]2C[C@H](O)[C@@H](COP(=O)(O)OP(=O)(O)OP(=O)(O)O)O2)c1` [dPa′TP], the “efficiency of incorporation opposite Ds in the template relative to that of dPaTP” value in assay [1] (KF exo−, template Ds) is on record as 3.9 fold. The “Efficiency (Vmax/KM)” value in assay [1] (template (N) = A, temp35N-1) is listed as 1.8 × 10^5 % min^−1M^−1; in assay [1] (template (N) = C, temp35N-1), 7.4 × 10^2 % min^−1M^−1; in assay [1] (template (N) = Ds, temp35N-1), 2.6 × 10^5 % min^−1M^−1; in assay [1] (template (N) = G, temp35N-1) it was 1.6 × 10^3 % min^−1M^−1; in assay [1] (template (N) = Pa′, temp35N-2), 4.1 × 10^4 % min^−1M^−1; in assay [1] (template (N) = T, temp35N-1) it was 1.6 × 10^3 % min^−1M^−1. Further, the Km in assay [1] (template (N) = A, temp35N-1) came out at 110 µM; in assay [1] (template (N) = C, temp35N-1), 80 µM; in assay [1] (template (N) = Ds, temp35N-1), 82 µM; in assay [1] (template (N) = G, temp35N-1) it was 80 µM; in assay [1] (template (N) = Pa′, temp35N-2), 190 µM; in assay [1] (template (N) = T, temp35N-1), 120 µM. Besides, the Vmax in assay [1] (template (N) = A, temp35N-1) was 20 % min^−1; in assay [1] (template (N) = C, temp35N-1), 0.059 % min^−1; in assay [1] (template (N) = Ds, temp35N-1) it was 21 % min^−1; in assay [1] (template (N) = G, temp35N-1), 0.13 % min^−1; in assay [1] (template (N) = Pa′, temp35N-2) it was 7.8 % min^−1; in assay [1] (template (N) = T, temp35N-1), 0.19 % min^−1.
For `Cc1cn([C@H]2C[C@H](O)[C@@H](COP(=O)(O)OP(=O)(O)OP(=O)(O)O)O2)c(=O)[nH]c1=O` [dTTP, reference compound], the “Efficiency (Vmax/KM)” value in assay [1] (template (N) = A, temp35N-1) is 4.0 × 10^6 % min^−1M^−1; in assay [1] (template (N) = Ds, temp35N-1) it was 1.9 × 10^3 % min^−1M^−1; in assay [1] (template (N) = G, temp35N-1), 2.1 × 10^3 % min^−1M^−1; in assay [1] (template (N) = Pa, temp35N-2), 1.1 × 10^2 % min^−1M^−1; in assay [1] (template (N) = Pa′, temp35N-2) it was 1.0 × 10^2 % min^−1M^−1. Also, the Km in assay [1] (template (N) = A, temp35N-1) came out at 0.7 µM; in assay [1] (template (N) = Ds, temp35N-1), 220 µM; in assay [1] (template (N) = G, temp35N-1), 140 µM; in assay [1] (template (N) = Pa, temp35N-2), 880 µM; in assay [1] (template (N) = Pa′, temp35N-2), 1400 µM. The Vmax was determined as 2.8 % min^−1 in assay [1] (template (N) = A, temp35N-1); 0.41 % min^−1 in assay [1] (template (N) = Ds, temp35N-1); 0.29 % min^−1 in assay [1] (template (N) = G, temp35N-1); 0.097 % min^−1 in assay [1] (template (N) = Pa, temp35N-2); 0.14 % min^−1 in assay [1] (template (N) = Pa′, temp35N-2).
With “biotin-16-uridine-5′-triphosphate [Bio-UTP, reference compound]”, in assay [2] (DNAcont5 template, 2 mM Bio-UTP, 2 mM ATP, GTP and CTP), the “biotinylation of transcripts by incorporation opposite A” value is “completely biotinylated”. For the same compound, in assay [2] (DNAcont6 template, 2 mM Bio-UTP, 2 mM ATP, GTP and CTP), the “transcripts biotinylated by misincorporation opposite bases G, C and T” value was found to be 21%.
In the case of `Nc1ccn([C@H]2C[C@H](O)[C@@H](COP(=O)(O)OP(=O)(O)OP(=O)(O)O)O2)c(=O)n1` [dCTP, reference compound], the “Efficiency (Vmax/KM)” value is reported as 1.8 × 10^3 % min^−1M^−1 in assay [1] (template (N) = A, temp35N-1); 8.3 × 10^2 % min^−1M^−1 in assay [1] (template (N) = Ds, temp35N-1); 2.3 × 10^7 % min^−1M^−1 in assay [1] (template (N) = G, temp35N-1). Besides, the Km is 1200 µM in assay [1] (template (N) = A, temp35N-1); 410 µM in assay [1] (template (N) = Ds, temp35N-1); 0.24 µM in assay [1] (template (N) = G, temp35N-1). Besides, the Vmax in assay [1] (template (N) = A, temp35N-1) worked out at 2.2 % min^−1; in assay [1] (template (N) = Ds, temp35N-1), 0.34 % min^−1; in assay [1] (template (N) = G, temp35N-1) it was 5.5 % min^−1. Besides, the “inserted products (KM, Vmax n.d.)” value in assay [1] (template (N) = Pa, temp35N-2) is “n.d.^c (Minimal inserted products (<2%) were detected after incubation for 20 minutes with 1500 μM nucleoside 5′-triphosphate and 50 nM enzyme.)”; in assay [1] (template (N) = Pa′, temp35N-2), “n.d. (Minimal inserted products (<2%) were detected after incubation for 20 minutes with 1500 μM nucleoside 5′-triphosphate and 50 nM enzyme.)”.
As to `O=Cc1cccn1[C@H]1C[C@H](O)[C@@H](COP(=O)(O)OP(=O)(O)OP(=O)(O)O)O1` [dPaTP], the “Efficiency (Vmax/KM)” value in assay [1] (template (N) = A, temp35N-1) is recorded as 5.2 × 10^4 % min^−1M^−1; in assay [1] (template (N) = Ds, temp35N-1), 6.2 × 10^4 % min^−1M^−1; in assay [1] (template (N) = G, temp35N-1), 4.4 × 10^2 % min^−1M^−1; in assay [1] (template (N) = Pa, temp35N-2), 1.5 × 10^3 % min^−1M^−1; in assay [1] (template (N) = T, temp35N-1) it was 3.1 × 10^2 % min^−1M^−1. Moreover, the Km came out at 330 µM in assay [1] (template (N) = A, temp35N-1); 340 µM in assay [1] (template (N) = Ds, temp35N-1); 140 µM in assay [1] (template (N) = G, temp35N-1); 380 µM in assay [1] (template (N) = Pa, temp35N-2); 170 µM in assay [1] (template (N) = T, temp35N-1). The Vmax in assay [1] (template (N) = A, temp35N-1) was determined as 17 % min^−1; in assay [1] (template (N) = Ds, temp35N-1), 21 % min^−1; in assay [1] (template (N) = G, temp35N-1) it was 0.061 % min^−1; in assay [1] (template (N) = Pa, temp35N-2) it was 0.56 % min^−1; in assay [1] (template (N) = T, temp35N-1) it was 0.053 % min^−1. The “inserted products (KM, Vmax n.d.)” value in assay [1] (template (N) = C, temp35N-1) was “n.d. (Minimal inserted products (<2%) were detected after incubation for 20 minutes with 1500 μM nucleoside 5′-triphosphate and 50 nM enzyme.)”.
As for `Nc1nc2c(ncn2[C@H]2C[C@H](O)[C@@H](COP(=O)(O)OP(=O)(O)OP(=O)(O)O)O2)c(=O)[nH]1` [dGTP, reference compound], the “Efficiency (Vmax/KM)” value in assay [1] (template (N) = C, temp35N-2) is listed as 7.0 × 10^6 % min^−1M^−1; in assay [1] (template (N) = Pa, temp35N-2), 8.8 × 10^2 % min^−1M^−1; in assay [1] (template (N) = Pa′, temp35N-2) it was 5.5 × 10^2 % min^−1M^−1; in assay [1] (template (N) = T, temp35N-2) it was 2.9 × 10^3 % min^−1M^−1. Further, the Km in assay [1] (template (N) = C, temp35N-2) was 2.3 µM; in assay [1] (template (N) = Pa, temp35N-2), 480 µM; in assay [1] (template (N) = Pa′, temp35N-2), 800 µM; in assay [1] (template (N) = T, temp35N-2) it was 420 µM. Also, the Vmax in assay [1] (template (N) = C, temp35N-2) worked out at 16 % min^−1; in assay [1] (template (N) = Pa, temp35N-2), 0.42 % min^−1; in assay [1] (template (N) = Pa′, temp35N-2), 0.44 % min^−1; in assay [1] (template (N) = T, temp35N-2) it was 12 % min^−1. For the same compound, the “inserted products (KM, Vmax n.d.)” value in assay [1] (template (N) = Ds, temp35N-1) was “n.d.^c (Minimal inserted products (<2%) were detected after incubation for 20 minutes with 1500 μM nucleoside 5′-triphosphate and 50 nM enzyme.)”.
